Experimental data taken from patent US8173645B2 (Takeda San Diego, Inc., priority 2007, dated 2012).

Target: T1, glucokinase (GK), residues 12-465 of the human enzyme (Homo sapiens, UniProt P35557)
T1 construct: I.D. No. 1 corresponds to residues 12-465 of glucokinase; made in house; host or cells: E. coli DH10b-Tlr
T1 sequence (P35557 with tags, fused parts or gaps isoform P35557-2): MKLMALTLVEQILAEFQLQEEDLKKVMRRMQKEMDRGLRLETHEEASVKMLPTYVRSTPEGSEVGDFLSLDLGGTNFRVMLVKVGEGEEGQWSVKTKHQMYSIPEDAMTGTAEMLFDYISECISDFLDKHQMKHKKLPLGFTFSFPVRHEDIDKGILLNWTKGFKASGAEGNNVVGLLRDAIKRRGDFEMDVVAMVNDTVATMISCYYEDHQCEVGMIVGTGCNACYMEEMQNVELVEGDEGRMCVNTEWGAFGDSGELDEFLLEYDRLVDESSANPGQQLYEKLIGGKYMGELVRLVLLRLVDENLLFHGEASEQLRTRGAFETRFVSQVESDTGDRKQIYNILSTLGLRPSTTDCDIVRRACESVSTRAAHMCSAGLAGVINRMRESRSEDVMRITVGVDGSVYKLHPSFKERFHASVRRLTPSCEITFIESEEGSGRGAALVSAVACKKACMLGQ
Experiment: Enzymatic glucokinase activity assay (KinaseGlo luminescence, ATP consumption)
Assay type: biochemical
Conditions: 5 μM ATP, 5 mM Glucose; for EC50: GK activation, Kact = concentration giving 50% of the maximal increase in GK activity, read-out: pKact; for Emax: calculated maximal gain in GK enzyme activity at a saturating concentration of the compound, read-out: % ACTmax
Summary of the method: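 C-terminally FLAG-tagged enzyme expressed in E. coli and purified. Reaction: 25 mM Hepes pH 7.2, 25 mM NaCl, 10 mM MgCl2, 0.01% Brij35, 1 mM DTT, 5 μM ATP, 5 mM glucose, 2% DMSO, 60 min at room temperature. Remaining ATP was read by luciferase luminescence; pKact and % ACTmax came from nonlinear fits of 11-point 2-fold dilutions.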

For `O=C(Nc1nccs1)[C@H](CC1CCCCC1)N1CCN(S(=O)(=O)c2ccc(-c3ccno3)s2)CC1=O` [Example 174, (S)-3-cyclohexyl-2-(4-(5-(isoxazol-5-yl)thiophen-2-ylsulfonyl)-2-oxopiperazin-1-yl)-N-(thiazol-2-yl)propanamide], the EC50 was 1580 to 2510 nM and the Emax was at most 74%.
Compound `O=C(Nc1nccs1)[C@H](CC1CCCCC1)N1CCN(S(=O)(=O)c2ccc(Oc3ccccn3)cc2)CC1=O` [Example 207, (S)-3-cyclohexyl-2-(2-oxo-4-(4-(pyridin-2-yloxy)phenylsulfonyl)piperazin-1-yl)-N-(thiazol-2-yl)propanamide] has an EC50 of at most 631 nM and an Emax of 74.1 to 97%.
`O=C(Nc1nccs1)[C@H](CC1CCCCC1)N1CCN(S(=O)(=O)c2ccc(Cl)c(Cl)c2)CC1=O` [Example 90, (S)-3-cyclohexyl-2-(4-(3,4-dichlorophenylsulfonyl)-2-oxopiperazin-1-yl)-N-(thiazol-2-yl)propanamide] was tested, and the EC50 was 794 to 1260 nM and the Emax was at most 74%.
Work on `Cn1nc(-c2ccc(S(=O)(=O)N3CCN([C@@H](CC4CCCCC4)C(=O)Nc4nccs4)C(=O)C3)s2)cc1C(F)(F)F` [Example 175, (S)-3-cyclohexyl-2-(4-(5-(1-methyl-5-(trifluoromethyl)-1H-pyrazol-3-yl)thiophen-2-ylsulfonyl)-2-oxopiperazin-1-yl)-N-(thiazol-2-yl)propanamide] yielded an EC50 of at least 3160 nM and an Emax of at most 74%.
In the case of `Cn1cc(S(=O)(=O)N2CCN([C@@H](CC3CCCCC3)C(=O)Nc3nccs3)C(=O)C2)c(C(F)(F)F)n1` [Example 198, (S)-3-cyclohexyl-2-(4-(1-methyl-3-(trifluoromethyl)-1H-pyrazol-4-ylsulfonyl)-2-oxopiperazin-1-yl)-N-(thiazol-2-yl)propanamide], the EC50 is reported as 1580 to 2510 nM and the Emax is reported as 108 to 119%.
Compound `CS(=O)(=O)N1CCN([C@@H](CC2CCCCC2)C(=O)Nc2nccs2)C(=O)C1` [Example 1, (S)-3-cyclohexyl-2-(4-(methylsulfonyl)-2-oxopiperazin-1-yl)-N-(thiazol-2-yl)propanamide] has an EC50 of 1580 to 2510 nM and an Emax of 74.1 to 97%.
`Cc1n[nH]c(C)c1S(=O)(=O)N1CCN([C@@H](CC2CCCCC2)C(=O)Nc2nccs2)C(=O)C1` [Example 111, (S)-3-cyclohexyl-2-(4-(3,5-dimethyl-1H-pyrazol-4-ylsulfonyl)-2-oxopiperazin-1-yl)-N-(thiazol-2-yl)propanamide] showed an EC50 of at least 3160 nM and an Emax of at least 119%.
`O=C(Nc1nccs1)[C@H](CC1CCCCC1)N1CCN(C(=O)Nc2ccc(OCc3ccccc3)cc2)CC1=O` [Example 146, (S)-N-(4-(benzyloxy)phenyl)-4-(3-cyclohexyl-1-oxo-1-(thiazol-2-ylamino)propan-2-yl)-3-oxopiperazine-1-carboxamide] was tested, and the EC50 was at least 3160 nM and the Emax was at most 74%.
